In patent publication US20120004166A1, “ARYLOXYALKYLENE-SUBSTITUTED HYDROXYPHENYLHEXYNOIC ACIDS, PROCESS FOR PREPARATION THEREOF AND USE THEREOF AS A MEDICAMENT” (SANOFI, priority 2010, published 2012):

Target: T1, GPCR GPR40 (Rattus norvegicus, UniProt Q8K3T4)
T1 construct: expressed in transfected cells; host or cells: HEK293
Test: In vitro FLIPR assay with recombinant cells which express the GPCR GPR40
Type: cell-based
Settings: recombinant HEK293 cells expressing rat GPR40; agonist-induced change in intracellular Ca2+ (Fluo-4, FLIPR); 100% = 10 μM linoleic acid
Protocol: In Vitro FLIPR Assay with Recombinant Cells which Express the GPCR GPR40
Function-testing assays were performed by means of the FLIPR technique (“Fluorescence Imaging Plate Reader”, Molecular Devices Corp.). To this end, agonist-induced changes in the intracellular concentration of Ca^2+ were determined in recombinant HEK293 cells which expressed the GPCR GPR40 (species: rat). For the studies, cells were sown into 96-well microtiter plates (60 000 cells/well) and left to grow overnight. The medium was removed and the cells were incubated in buffer which contained the fluorescent dye Fluo-4. After this loading with dye, the cells were washed, test substance was added and changes in the intracellular Ca^2+ concentration were measured in the FLIPR unit. Results were presented as the percentage change relative to the control (0%: no test substance added; 100%: 10 μM reference agonist linoleic acid added) and used to calculate dose/effect curves, and EC50 values were determined.

T1 sequence (Q8K3T4 whole entry): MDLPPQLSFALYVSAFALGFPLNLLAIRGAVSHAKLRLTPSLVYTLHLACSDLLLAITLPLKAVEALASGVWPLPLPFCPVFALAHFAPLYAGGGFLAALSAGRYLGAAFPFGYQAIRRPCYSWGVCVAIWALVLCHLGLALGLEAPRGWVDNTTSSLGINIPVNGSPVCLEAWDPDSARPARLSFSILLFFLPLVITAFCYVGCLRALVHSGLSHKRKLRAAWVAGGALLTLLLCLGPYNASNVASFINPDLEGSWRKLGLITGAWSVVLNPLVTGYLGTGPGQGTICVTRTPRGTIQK

## CC#CC(CC(=O)O)c1ccc(OCCC(C)Oc2ccc(C(F)(F)F)cc2)cc1 (single isomer, unassigned) [Example 23, 3-{4-[(S or R)-3-(4-Trifluoromethylphenoxy)butoxy]phenyl}hex-4-ynoic acid]
  EC50: 0.21 µM

## CC#CC(CC(=O)O)c1ccc(OCCC(C)Oc2ccc(C(F)(F)F)cc2)cc1 (single isomer, unassigned) [Example 24, 3-{4-[(R or S)-3-(4-Trifluoromethylphenoxy)butoxy]phenyl}hex-4-ynoic acid]
  EC50: 0.98 µM

## CC#CC(CC(=O)O)c1ccc(OCCCOc2cccc(C(C)(C)C)c2)cc1 (centres unmarked) [Example 1, 3-{4-[3-(3-tert-Butylphenoxy)propoxy]phenyl}hex-4-ynoic acid]
  EC50: 0.44 µM

## CC#CC(CC(=O)O)c1ccc(OCCOc2cccc(C(C)(C)C)c2)cc1 (centres unmarked) [Example 2, 3-{4-[2-(3-tert-Butylphenoxy)ethoxy]phenyl}hex-4-ynoic acid]
  EC50: 0.05 µM

## CC#CC(CC(=O)O)c1ccc(OCCCCOc2cccc(C(C)(C)C)c2)cc1 (centres unmarked) [Example 3, 3-{4-[4-(3-tert-Butylphenoxy)butoxy]phenyl}hex-4-ynoic acid]
  EC50: 0.35 µM

## CC#CC(CC(=O)O)c1ccc(OCCCOc2ccc(C(F)(F)F)cc2Cl)cc1 (centres unmarked) [Example 4, 3-{4-[3-(2-chloro-4-trifluoromethylphenoxy)propoxy]phenyl}hex-4-ynoic acid]
  EC50: 0.11 µM

## CC#CC(CC(=O)O)c1ccc(OCCCOc2cc(C(F)(F)F)cc(C(F)(F)F)c2)cc1 (centres unmarked) [Example 5, 3-{4-[3-(3,5-bis(Trifluoromethyl)phenoxy)propoxy]phenyl}hex-4-ynoic acid]
  EC50: 0.4 µM

## CC#CC(CC(=O)O)c1ccc(OCCCOc2ccccc2C(F)(F)F)cc1 (centres unmarked) [Example 6, 3-{4-[3-(2-Trifluoromethylphenoxy)propoxy]phenyl}hex-4-ynoic acid]
  EC50: 0.17 µM

## CC#CC(CC(=O)O)c1ccc(OCCCOc2cccc(C(F)(F)F)c2Cl)cc1 (centres unmarked) [Example 7, 3-{4-[3-(2-Chloro-3-trifluoromethylphenoxy)propoxy]phenyl}hex-4-ynoic acid]
  EC50: 0.72 µM

## CC#CC(CC(=O)O)c1ccc(OCCCOc2ccc(C(F)(F)F)nc2)cc1 (centres unmarked) [Example 8, 3-{4-[3-(6-Trifluoromethylpyridin-3-yloxy)propoxy]phenyl}hex-4-ynoic acid]
  EC50: 0.35 µM

## CC#CC(CC(=O)O)c1ccc(OCCCOc2cc(C(F)(F)F)ccc2Cl)cc1 (centres unmarked) [Example 9, 3-{4-[3-(2-Chloro-5-trifluoromethylphenoxy)propoxy]phenyl}hex-4-ynoic acid]
  EC50: 0.61 µM

## CC#CC(CC(=O)O)c1ccc(OCCOc2ccc(C(F)(F)F)nc2)cc1 (centres unmarked) [Example 10, 3-{4-[2-(6-Trifluoromethylpyridin-3-yloxy)ethoxy]phenyl}hex-4-ynoic acid]
  EC50: 0.55 µM

## CC#CC(CC(=O)O)c1ccc(OCCCOc2ccc(C(F)(F)F)cc2)cc1 (centres unmarked) [Example 11, 3-{4-[3-(4-Trifluoromethylphenoxy)propoxy]phenyl}hex-4-ynoic acid]
  EC50: 0.08 µM

## CC#CC(CC(=O)O)c1ccc(OCCCOc2cccc(C)c2)cc1 (centres unmarked) [Example 12, 3-{4-[3-m-Tolyloxypropoxy]phenyl}hex-4-ynoic acid]
  EC50: 0.07 µM

## CC#CC(CC(=O)O)c1ccc(OCCOc2cccc(Cl)c2)cc1 (centres unmarked) [Example 13]
  EC50: 0.04 µM

## CC#CC(CC(=O)O)c1ccc(OCCOc2cccc(C)c2)cc1 (centres unmarked) [Example 14, 3-{4-[2-m-Tolyloxyethoxy]phenyl}hex-4-ynoic acid]
  EC50: 0.05 µM

## CC#CC(CC(=O)O)c1ccc(OCCOc2cccc(C(F)(F)F)c2)cc1 (centres unmarked) [Example 15, 3-{4-[2-(3-Trifluoromethylphenoxy)ethoxy]phenyl}hex-4-ynoic acid]
  EC50: 0.06 µM

## CC#CC(CC(=O)O)c1ccc(OCCOc2ccc(C(C)(C)C)cc2)cc1 (centres unmarked) [Example 16, 3-{4-[2-(4-tert-Butylphenoxy)ethoxy]phenyl}hex-4-ynoic acid]
  EC50: 0.61 µM

## CC#CC(CC(=O)O)c1ccc(OCCOc2ccccc2)cc1 (centres unmarked) [Example 17, 3-{4-[2-Phenoxyethoxy]phenyl}hex-4-ynoic acid]
  EC50: 0.36 µM

## CC#CC(CC(=O)O)c1ccc(OCCOc2ccccc2F)cc1 (centres unmarked) [Example 18, 3-{4-[2-(2-Fluorophenoxy)ethoxy]phenyl}hex-4-ynoic acid]
  EC50: 0.46 µM

## CC#CC(CC(=O)O)c1ccc(OCCOc2ccccc2Cl)cc1 (centres unmarked) [Example 19, 3-{4-[2-(2-Chlorophenoxy)ethoxy]phenyl}hex-4-ynoic acid]
  EC50: 0.18 µM

## CC#CC(CC(=O)O)c1ccc(OCCOc2ccccc2C)cc1 (centres unmarked) [Example 20, 3-{4-[2-o-Tolyloxyethoxy]phenyl}hex-4-ynoic acid]
  EC50: 0.08 µM

## CC#CC(CC(=O)O)c1ccc(OCCOc2ccccc2OC)cc1 (centres unmarked) [Example 21, 3-{4-[2-(2-Methoxyphenoxy)ethoxy]phenyl}hex-4-ynoic acid]
  EC50: 0.8 µM

## CC#CC(CC(=O)O)c1ccc(OCCOc2ccccc2C(F)(F)F)cc1 (centres unmarked) [Example 22, 3-{4-[2-(2-Trifluoromethylphenoxy)ethoxy]phenyl}hex-4-ynoic acid]
  EC50: 0.05 µM

## CC#CC(CC(=O)O)c1ccc(OC(C)CCOc2ccc(C(F)(F)F)cc2)cc1 (centres unmarked) [Example 25, 3-{4-[1-Methyl-3-(4-trifluoromethylphenoxy)propoxy]phenyl}hex-4-ynoic acid]
  EC50: 1.99 µM

## CC#CC(CC(=O)O)c1ccc(OCCC(C)Oc2cccc(C)c2)cc1 (centres unmarked) [Example 26, 3-[4-(3-m-Tolyloxybutoxy)phenyl]-hex-4-ynoic acid]
  EC50: 0.05 µM

## CC#CC(CC(=O)O)c1ccc(OCC[C@@H](C)Oc2cccc(C)c2)cc1 (stereo partly drawn) [Example 27, 3-[4-((R)-3-m-Tolyloxybutoxy)phenyl]hex-4-ynoic acid]
  EC50: 0.05 µM

## CC#CC(CC(=O)O)c1ccc(OCC[C@H](C)Oc2cccc(C)c2)cc1 (stereo partly drawn) [Example 28, 3-[4-((S)-3-m-Tolyloxybutoxy)phenyl]hex-4-ynoic acid]
  EC50: 0.05 µM

## CC#CC(CC(=O)O)c1ccc(OCC[C@@H](C)Oc2ccccc2C(F)(F)F)cc1 (stereo partly drawn) [Example 29, 3-{4-[(R)-3-(2-Trifluoromethylphenoxy)butoxy]phenyl}hex-4-ynoic acid]
  EC50: 0.17 µM

## CC#CC(CC(=O)O)c1ccc(OCC[C@H](C)Oc2ccccc2C(F)(F)F)cc1 (stereo partly drawn) [Example 30, 3-{4-[(S)-3-(2-Trifluoromethylphenoxy)butoxy]phenyl}hex-4-ynoic acid]
  EC50: 0.14 µM

## CC#CC(CC(=O)O)c1ccc(OCC[C@@H](C)Oc2ccc(C(F)(F)F)cc2Cl)cc1 (stereo partly drawn) [Example 31, 3-{4-[(R)-3-(2-Chloro-4-trifluoromethylphenoxy)butoxy]phenyl}hex-4-ynoic acid]
  EC50: 0.64 µM

## CC#CC(CC(=O)O)c1ccc(OCC[C@H](C)Oc2ccc(C(F)(F)F)cc2Cl)cc1 (stereo partly drawn) [Example 32, 3-{4-[(S)-3-(2-Chloro-4-trifluoromethylphenoxy)butoxy]phenyl}hex-4-ynoic acid]
  EC50: 0.77 µM

## CC#CC(CC(=O)O)c1ccc(OC(C)CCOc2cccc(C(C)(C)C)c2)cc1 (centres unmarked) [Example 33, 3-{4-[3-(3-tert-Butylphenoxy)-1-methylpropoxy]phenyl}hex-4-ynoic acid]
  EC50: 1.61 µM

## CC#CC(CC(=O)O)c1ccc(OCC(C)COc2ccc(C(F)(F)F)cc2)cc1 (centres unmarked) [Example 34, 3-{4-[2-Methyl-3-(4-trifluoromethylphenoxy)propoxy]phenyl}hex-4-ynoic acid]
  EC50: 0.81 µM

## CC#CC(CC(=O)O)c1ccc(OCC(C)COc2cccc(C(C)(C)C)c2)cc1 (centres unmarked) [Example 35, 3-{4-[3-(3-tert-Butylphenoxy)-2-methylpropoxy]phenyl}hex-4-ynoic acid]
  EC50: 1.09 µM

## CC#CC(CC(=O)O)c1ccc(OCC(C)COc2cc(C)ccc2C(C)C)cc1 (centres unmarked) [Example 36, 3-{4-[3-(2-Isopropyl-5-methylphenoxy)-2-methylpropoxy]phenyl}hex-4-ynoic acid]
  EC50: 1.59 µM

## CC#CC(CC(=O)O)c1ccc(OCC(C)COc2ccc(C(C)(C)C)cc2Cl)cc1 (centres unmarked) [Example 37, 3-{4-[3-(4-tert-Butyl-2-chlorophenoxy)-2-methylpropoxy]phenyl}hex-4-ynoic acid]
  EC50: 6.01 µM

## CC#CC(CC(=O)O)c1ccc(OCC(C)COc2ccccc2C(F)(F)F)cc1 (centres unmarked) [Example 38, 3-{4-[2-methyl-3-(2-trifluoromethylphenoxy)propoxy]phenyl}hex-4-ynoic acid]
  EC50: 0.73 µM

## CC#CC(CC(=O)O)c1ccc(OCC(C)COc2cc(C(C)C)ccc2C)cc1 (centres unmarked) [Example 39, 3-{4-[3-(5-Isopropyl-2-methylphenoxy)-2-methylpropoxy]phenyl}hex-4-ynoic acid]
  EC50: 3.2 µM

## CC#CC(CC(=O)O)c1ccc(OCC(C)COc2ccc(Br)c(Cl)c2)cc1 (centres unmarked) [Example 40, 3-{4-[3-(4-Bromo-3-chlorophenoxy)-2-methylpropoxy]phenyl}hex-4-ynoic acid]
  EC50: 0.83 µM

## CC#CC(CC(=O)O)c1ccc(OCC(C)(C)COc2ccc(C(F)(F)F)cc2)cc1 (centres unmarked) [Example 41, 3-{4-[2,2-dimethyl-3-(4-trifluoromethylphenoxy)propoxy]phenyl}hex-4-ynoic acid]
  EC50: 0.8 µM

## CC#CC(CC(=O)O)c1ccc(OCC(CC)COc2ccc(C(F)(F)F)cc2)cc1 (centres unmarked) [Example 42, 3-{4-[2-(4-Trifluoromethylphenoxymethyl)butoxy]phenyl}hex-4-ynoic acid]
  EC50: 1.78 µM

## CC#CC(CC(=O)O)c1ccc(OCC(CC)COc2cccc(C(C)(C)C)c2)cc1 (centres unmarked) [Example 43, 3-{4-[2-(3-tert-Butylphenoxymethyl)butoxy]phenyl}hex-4-ynoic acid]
  EC50: 2.03 µM

## CC#CC(CC(=O)O)c1ccc(OCC(CCC)COc2ccc(C(F)(F)F)cc2)cc1 (centres unmarked) [Example 44, 3-{4-[2-(4-Trifluoromethylphenoxymethyl)pentyloxy]phenyl}hex-4-ynoic acid]
  EC50: 5.1 µM
